Data reported in paper PMC8761492 (Life Science Alliance, 2022).
Starred links: 1 amine or outer side, 2 acyl side, 3 side chain; linkers in the order of their positions; H or OH if unused. Positions of bridges follow the written chain, without caps; N, C: chain ends. Non-standard residues stand in square brackets, D forms with d. Residues, ends and D or L forms follow the SMILES beside them. *: point of attachment. X1 = CC[C@H](C)[C@@H](N[*:1])[C@@H](O)CC(=O)O[C@H](C(=O)[C@H](C)C(=O)[*:2])C(C)C; NMeY = CN[C@@H](Cc1ccc(O)cc1)C(=O)O; dNMeL = CN[C@H](CC(C)C)C(=O)O; Pyruvoyl = CC(=O)C(=O)*

Assays:
COVID-19 = experiment: APLICOV-PC: mortality, ventilation, ICU admission and oxygen therapy; type: in vivo, human; conditions: for Patients requiring invasive mechanical ventilation and/or intensive care unit admission / Patients requiring noninvasive mechanical ventilation: Day 16 to Day 31
Procedure: Secondary outcomes included change from baseline of viral load, as evaluated by quantitative PCR via central laboratory on nasopharyngeal exudate or sampled from the lower respiratory tract within 48 h before first administration of plitidepsin and on days 4, 7, 15, and 31, and the percentage of patients requiring oxygen therapy, noninvasive mechanical ventilation, invasive mechanical ventilation and/or intensive care unit admission, and the percentage of patients with a fatal outcome on days 7, 15, and 31.
Analysis for preliminary evidence of efficacy was performed on all patients who had efficacy assessments at baseline and at least one subsequent assessment during treatment.
In regards with subgroup analyses, safety and efficacy outcomes also were assessed by age-group (<65 versus ≥65 yr) and efficacy outcomes were assessed by disease severity at baseline. Safety outcomes were also assessed before and after the implementation of the protocol amendment.

SARS-CoV-2 = experiment: SARS-CoV-2-induced cytopathic effect in Vero E6 cells (CellTiter-Glo); conditions: read-out: IC50 against SARS-CoV-2-induced cytopathic effects, 3 d post infection
[1] = day 1 to Day 7, Moderate (N=23)
[2] = day 1 to Day 15, Moderate (N=23)
[3] = day 1 to Day 31, Moderate (N=23)

Compound: CC[C@H](C)[C@H]1NC(=O)[C@@H](NC(=O)[C@@H](CC(C)C)N(C)C(=O)[C@@H]2CCCN2C(=O)C(C)=O)[C@@H](C)OC(=O)[C@H](Cc2ccc(OC)cc2)N(C)C(=O)[C@@H]2CCCN2C(=O)[C@H](CC(C)C)NC(=O)[C@@H](C)C(=O)[C@H](C(C)C)OC(=O)C[C@@H]1O [Plitidepsin] (Pyruvoyl-P[dNMeL]T[X1]LP[NMeY](Me); ester 3-C)
- Patients requiring oxygen therapy at (COVID-19; Day 15, 1.5 mg (N=14)): 4 (28.6)
- Patients requiring oxygen therapy at (COVID-19; Day 15, 2.0 mg (N = 15)): 1 (6.7)
- Patients requiring oxygen therapy at (COVID-19; Day 15, 2.5 mg (N=15)): 4 (26.7)
- Patients requiring oxygen therapy at (COVID-19; Day 15, Total (N=44)): 9 (20.5)
- Patients requiring invasive mechanical ventilation and/or intensive care unit admission (COVID-19; 1.5 mg (N = 14)): 1 (7.1)
- Patients requiring noninvasive mechanical ventilation (COVID-19; 1.5 mg (N = 14)): 1 (7.1)
- Patients requiring invasive mechanical ventilation and/or intensive care unit admission (COVID-19; 2.0 mg (N = 15)): 1 (6.7)
- Patients requiring noninvasive mechanical ventilation (COVID-19; 2.0 mg (N = 15)): 1 (6.7)
- Patients requiring invasive mechanical ventilation and/or intensive care unit admission (COVID-19; 2.5 mg (N = 15)): 1 (6.7)
- Patients requiring noninvasive mechanical ventilation (COVID-19; 2.5 mg (N = 15)): 1 (6.7)
- Patients requiring invasive mechanical ventilation and/or intensive care unit admission (COVID-19; Total (N = 44)): 3 (6.8)
- Patients requiring noninvasive mechanical ventilation (COVID-19; Total (N = 44)): 3 (6.8)
- Patients requiring oxygen therapy at (COVID-19; Day 31, 1.5 mg (N=14)): 0
- Patients requiring oxygen therapy at (COVID-19; Day 31, 2.0 mg (N = 15)): 2 (13.3)
- Patients requiring oxygen therapy at (COVID-19; Day 31, 2.5 mg (N=15)): 1 (6.7)
- Patients requiring oxygen therapy at (COVID-19; Day 31, Total (N=44)): 3 (6.8)
- Mortality from Day 1 to Day 31 (COVID-19; Total (N = 44)): 2 (4.5)
- Patients requiring oxygen therapy (low flow) at (COVID-19; day 1 to Day 7, Mild (N=6)): 33.3%
- Patients requiring oxygen therapy at (COVID-19; day 1 to Day 7, Mild (N=6)): 33.3%
- Patients requiring non-invasive mechanical ventilation at (COVID-19; [1]): 4.3%
- Patients requiring oxygen therapy (high flow) at (COVID-19; [1]): 4.3%
- Patients requiring oxygen therapy (low flow) at (COVID-19; [1]): 78.3%
- Patients requiring oxygen therapy at (COVID-19; [1]): 78.3%
- Patients requiring ICU admission at (COVID-19; day 1 to Day 7, Severe (N=15)): 33.3%
- Patients requiring invasive mechanical ventilation and/or ICU admission at (COVID-19; day 1 to Day 7, Severe (N=15)): 33.3%
- Patients requiring non-invasive mechanical ventilation at (COVID-19; day 1 to Day 7, Severe (N=15)): 26.7%
- Patients requiring oxygen therapy (high flow) at (COVID-19; day 1 to Day 7, Severe (N=15)): 26.7%
- Patients requiring oxygen therapy (low flow) at (COVID-19; day 1 to Day 7, Severe (N=15)): 100%
- Patients requiring oxygen therapy at (COVID-19; day 1 to Day 7, Severe (N=15)): 100%
- Patients requiring oxygen therapy (low flow) at (COVID-19; day 1 to Day 15, Mild (N=6)): 33.3%
- Patients requiring oxygen therapy at (COVID-19; day 1 to Day 15, Mild (N=6)): 33.3%
- Patients requiring non-invasive mechanical ventilation at (COVID-19; [2]): 4.3%
- Patients requiring oxygen therapy (high flow) at (COVID-19; [2]): 4.3%
- Patients requiring oxygen therapy (low flow) at (COVID-19; [2]): 78.3%
- Patients requiring oxygen therapy at (COVID-19; [2]): 78.3%
- Patients requiring ICU admission at (COVID-19; day 1 to Day 15, Severe (N=15)): 40%
- Patients requiring invasive mechanical ventilation and/or ICU admission at (COVID-19; day 1 to Day 15, Severe (N=15)): 40%
- Patients requiring invasive mechanical ventilation at (COVID-19; day 1 to Day 15, Severe (N=15)): 13.3%
- Patients requiring non-invasive mechanical ventilation at (COVID-19; day 1 to Day 15, Severe (N=15)): 40%
- Patients requiring oxygen therapy (high flow) at (COVID-19; day 1 to Day 15, Severe (N=15)): 40%
- Patients requiring oxygen therapy (low flow) at (COVID-19; day 1 to Day 15, Severe (N=15)): 100%
- Patients requiring oxygen therapy at (COVID-19; day 1 to Day 15, Severe (N=15)): 100%
- Patients requiring oxygen therapy (low flow) at (COVID-19; day 1 to Day 31, Mild (N=6)): 33.3%
- Patients requiring oxygen therapy at (COVID-19; day 1 to Day 31, Mild (N=6)): 33.3%
- Patients requiring non-invasive mechanical ventilation at (COVID-19; [3]): 4.3%
- Patients requiring oxygen therapy (high flow) at (COVID-19; [3]): 4.3%
- Patients requiring oxygen therapy (low flow) at (COVID-19; [3]): 78.3%
- Patients requiring oxygen therapy at (COVID-19; [3]): 78.3%
- Deaths at (COVID-19; day 1 to Day 31, Severe (N=15)): 13.3%
- Patients requiring ICU admission at (COVID-19; day 1 to Day 31, Severe (N=15)): 40%
- Patients requiring invasive mechanical ventilation and/or ICU admission at (COVID-19; day 1 to Day 31, Severe (N=15)): 40%
- Patients requiring invasive mechanical ventilation at (COVID-19; day 1 to Day 31, Severe (N=15)): 20%
- Patients requiring non-invasive mechanical ventilation at (COVID-19; day 1 to Day 31, Severe (N=15)): 46.7%
- Patients requiring oxygen therapy (high flow) at (COVID-19; day 1 to Day 31, Severe (N=15)): 40%
- Patients requiring oxygen therapy (low flow) at (COVID-19; day 1 to Day 31, Severe (N=15)): 100%
- Patients requiring oxygen therapy at (COVID-19; day 1 to Day 31, Severe (N=15)): 100%
- patients requiring nonmechanical invasive ventilation (COVID-19; moderate disease, one patient): 4.3%
- patients requiring intensive care support (COVID-19; severe disease at baseline, 6 of 15): 40%
- patients requiring nonmechanical invasive ventilation (COVID-19; severe disease, seven patients): 46.7%
- patients requiring intensive care support (COVID-19; six of 44 patients): 13.6%
- IC50 (SARS-CoV-2): 38 nM
